According to the CheMixHub viscosity set:
Where “and” joins values, the source holds several entries; their conditions need not be identical. Identical values can stand only once.

Assay: xn = mol fraction of the nth substance listed

CCOC(=O)CCl + CCCCCCCCCC
viscosity [mPa·s], 101.33 kPa
Conditions	x1 = 0.0992	x1 = 0.2037	x1 = 0.3031	x1 = 0.4005	x1 = 0.5016	x1 = 0.6027	x1 = 0.7039	x1 = 0.8019	x1 = 0.9008
298.15 K	0.821	0.825	0.828	0.843	0.869	0.897	0.93	0.969	1.024
303.15 K	0.761	0.766	0.767	0.78	0.801	0.827	0.854	0.885	0.946
308.15 K	0.707	0.713	0.719	0.725	0.742	0.765	0.791	0.829	0.872

COC(=O)c1ccccc1 + CCCCCCCCCC
101 kPa
Conditions	viscosity [mPa·s]
298.15 K, x2 = 0.0262	1.743
298.15 K, x2 = 0.0672	1.629
298.15 K, x2 = 0.1282	1.488
298.15 K, x2 = 0.172	1.406
298.15 K, x2 = 0.2455	1.29
298.15 K, x2 = 0.2831	1.234
298.15 K, x2 = 0.3238	1.184
298.15 K, x2 = 0.3645	1.141
298.15 K, x2 = 0.4095	1.095
298.15 K, x2 = 0.458	1.05
298.15 K, x2 = 0.5093	1.012
298.15 K, x2 = 0.563	0.972
298.15 K, x2 = 0.6077	0.946
298.15 K, x2 = 0.6694	0.915
298.15 K, x2 = 0.7276	0.891
298.15 K, x2 = 0.8044	0.868
298.15 K, x2 = 0.8571	0.855
298.15 K, x2 = 0.9293	0.845
308.15 K, x2 = 0.0467	1.4
308.15 K, x2 = 0.0764	1.34
308.15 K, x2 = 0.1148	1.271
308.15 K, x2 = 0.1464	1.219
308.15 K, x2 = 0.1853	1.163
308.15 K, x2 = 0.2147	1.12
308.15 K, x2 = 0.2537	1.076
308.15 K, x2 = 0.2939	1.031
308.15 K, x2 = 0.3391	0.988
308.15 K, x2 = 0.3803	0.956
308.15 K, x2 = 0.429	0.922
308.15 K, x2 = 0.4756	0.894
308.15 K, x2 = 0.5274	0.866
308.15 K, x2 = 0.575	0.841
308.15 K, x2 = 0.6318	0.816
308.15 K, x2 = 0.6926	0.79
308.15 K, x2 = 0.7434	0.775
308.15 K, x2 = 0.8116	0.759
308.15 K, x2 = 0.887	0.747
318.15 K, x2 = 0.0153	1.249
318.15 K, x2 = 0.0485	1.196
318.15 K, x2 = 0.0774	1.151
318.15 K, x2 = 0.113	1.101
318.15 K, x2 = 0.1467	1.058
318.15 K, x2 = 0.1837	1.015
318.15 K, x2 = 0.2171	0.977
318.15 K, x2 = 0.2582	0.936
318.15 K, x2 = 0.2931	0.903
318.15 K, x2 = 0.3395	0.863
318.15 K, x2 = 0.3892	0.826
318.15 K, x2 = 0.4363	0.795
318.15 K, x2 = 0.4972	0.76
318.15 K, x2 = 0.5486	0.734
318.15 K, x2 = 0.6025	0.713
318.15 K, x2 = 0.6669	0.692
318.15 K, x2 = 0.7208	0.678
318.15 K, x2 = 0.7971	0.663
318.15 K, x2 = 0.8627	0.655

CC(C)CC(C)C + CCCCCCCCCCCC
101 kPa, x1 = 0.5
Conditions	viscosity [mPa·s]
298 K	0.7489
318 K	0.5809

CC(C)c1cc(C(C)C)cc(C(C)C)c1 + CCCCCCCCCCCC
viscosity [mPa·s], 102 kPa
Conditions	x1 = 0.0997	x1 = 0.2002	x1 = 0.3009	x1 = 0.4002	x1 = 0.5003	x1 = 0.6001	x1 = 0.7001	x1 = 0.8002	x1 = 0.8999
293.15 K	1.57	1.67	1.8	1.94	2.14	2.37	2.67	3.05	3.51
303.15 K	1.31	1.39	1.48	1.59	1.73	1.89	2.09	2.35	2.66
313.15 K	1.11	1.17	1.24	1.32	1.42	1.54	1.69	1.86	2.08
323.15 K	0.956	1	1.05	1.12	1.19	1.28	1.39	1.52	1.67

CCOC(=O)CCl + CCCCCCCCCCCC
viscosity [mPa·s], 101.33 kPa
Conditions	x1 = 0.0961	x1 = 0.2041	x1 = 0.3012	x1 = 0.4005	x1 = 0.5029	x1 = 0.6026	x1 = 0.7029	x1 = 0.804	x1 = 0.9017
298.15 K	1.25	1.197	1.159	1.14	1.127	1.116	1.105	1.101	1.099
303.15 K	1.149	1.094	1.062	1.041	1.027	1.029	1.015	0.994	0.985
308.15 K	1.054	1.019	0.979	0.96	0.946	0.94	0.93	0.927	0.929

COC(=O)c1ccccc1 + CCCCCCCCCCCC
101 kPa
Conditions	viscosity [mPa·s]
298.15 K, x2 = 0.082	1.662
298.15 K, x2 = 0.1173	1.604
298.15 K, x2 = 0.144	1.569
298.15 K, x2 = 0.1894	1.521
298.15 K, x2 = 0.2155	1.489
298.15 K, x2 = 0.2495	1.456
298.15 K, x2 = 0.2908	1.424
298.15 K, x2 = 0.3295	1.395
298.15 K, x2 = 0.3708	1.367
298.15 K, x2 = 0.4625	1.325
298.15 K, x2 = 0.5803	1.295
298.15 K, x2 = 0.6336	1.286
298.15 K, x2 = 0.6963	1.278
298.15 K, x2 = 0.7551	1.279
298.15 K, x2 = 0.837	1.291
298.15 K, x2 = 0.9197	1.314
308.15 K, x2 = 0.0354	1.452
308.15 K, x2 = 0.0681	1.412
308.15 K, x2 = 0.0984	1.376
308.15 K, x2 = 0.126	1.347
308.15 K, x2 = 0.1623	1.311
308.15 K, x2 = 0.1958	1.282
308.15 K, x2 = 0.2384	1.248
308.15 K, x2 = 0.2693	1.226
308.15 K, x2 = 0.3062	1.203
308.15 K, x2 = 0.3476	1.182
308.15 K, x2 = 0.3895	1.164
308.15 K, x2 = 0.4361	1.146
308.15 K, x2 = 0.485	1.131
308.15 K, x2 = 0.5382	1.12
308.15 K, x2 = 0.5886	1.112
308.15 K, x2 = 0.65	1.108
308.15 K, x2 = 0.7204	1.107
308.15 K, x2 = 0.7849	1.11
308.15 K, x2 = 0.8845	1.124
318.15 K, x2 = 0.0445	1.219
318.15 K, x2 = 0.0506	1.213
318.15 K, x2 = 0.0779	1.183
318.15 K, x2 = 0.1097	1.152
318.15 K, x2 = 0.1388	1.126
318.15 K, x2 = 0.1737	1.097
318.15 K, x2 = 0.2067	1.072
318.15 K, x2 = 0.2449	1.048
318.15 K, x2 = 0.2814	1.025
318.15 K, x2 = 0.3256	1.001
318.15 K, x2 = 0.3648	0.983
318.15 K, x2 = 0.4153	0.964
318.15 K, x2 = 0.4635	0.95
318.15 K, x2 = 0.5194	0.938
318.15 K, x2 = 0.5726	0.931
318.15 K, x2 = 0.6372	0.926
318.15 K, x2 = 0.7	0.924
318.15 K, x2 = 0.7739	0.929
318.15 K, x2 = 0.8468	0.938

c1ccc2c(c1)CCCC2 + CCCCCCCCCCCC
323.15 K, 100 kPa
Conditions	viscosity
x1 = 0.399	0.965 mPa·s and 0.964 mPa·s
x1 = 0.714	1.06 mPa·s

CC(C)CC(C)C + CCCCCCCCCCCCCCCC
101 kPa, x1 = 0.5
Conditions	viscosity [mPa·s]
298 K	1.314
318 K	0.9631

CC(C)c1cc(C(C)C)cc(C(C)C)c1 + CCCCCCCCCCCCCCCC
viscosity [mPa·s], 102 kPa
Conditions	x1 = 0.1209	x1 = 0.1996	x1 = 0.3001	x1 = 0.3994	x1 = 0.5003	x1 = 0.6004	x1 = 0.6998	x1 = 0.7999	x1 = 0.8993
293.15 K	3.41	3.37	3.35	3.34	3.37	3.43	3.53	3.67	3.86
303.15 K	2.7	2.67	2.64	2.63	2.64	2.66	2.71	2.79	2.9
313.15 K	2.19	2.16	2.13	2.12	2.12	2.13	2.15	2.19	2.26
323.15 K	1.81	1.79	1.76	1.75	1.74	1.74	1.75	1.77	1.81

CC(C)OCCO + CCCCCCCCCCO
viscosity [mPa·s], 101 kPa
Conditions	298.15 K	303.15 K	308.15 K
x1 = 0.0501	11.21	9.204	7.728
x1 = 0.1066	10.53	8.634	7.235
x1 = 0.1507	10.01	8.194	6.853
x1 = 0.253	8.94	7.311	6.115
x1 = 0.3119	8.302	6.783	5.668
x1 = 0.3516	7.856	6.41	5.352
x1 = 0.4159	7.17	5.836	4.871
x1 = 0.5018	6.315	5.145	4.3
x1 = 0.6016	5.388	4.398	3.692
x1 = 0.7014	4.518	3.715	3.149
x1 = 0.8012	3.69	2.991	2.564
x1 = 0.854	3.267	2.661	2.308
x1 = 0.9003	2.873	2.385	2.097
x1 = 0.9507	2.516	2.166	1.948

CCCCOCCO + CCCCCCCCCCO
101 kPa
Conditions	viscosity [mPa·s]
303.15 K, x1 = 0.1024	8.155
308.15 K, x1 = 0.7009	3.195

CCCCCCCCN(CCCCCCCC)CCCCCCCC + CCCCCCCCO
Conditions	viscosity [mPa·s]
298 K, 101.3 kPa, x1 = 0.00811	7.341

c1ccc2c(c1)CCCC2 + CCCCCCCCO
viscosity [mPa·s], 100 kPa
Conditions	x1 = 0.0993	x1 = 0.1995	x1 = 0.2994	x1 = 0.3997	x1 = 0.4996	x1 = 0.5996	x1 = 0.6996	x1 = 0.7994	x1 = 0.8994
293.15 K	7.58	6.37	5.34	4.49	3.8	3.25	2.83	2.53	2.31
298.15 K	6.37	5.38	4.55	3.86	3.3	2.85	2.51	2.25	2.09
303.15 K	5.39	4.59	3.92	3.35	2.89	2.52	2.22	2.01	1.88
308.15 K	4.61	3.95	3.39	2.92	2.54	2.23	1.99	1.81	1.7
313.15 K	3.95	3.42	2.97	2.58	2.26	2	1.79	1.64	1.55
318.15 K	3.42	2.99	2.61	2.29	2.02	1.8	1.63	1.51	1.43
323.15 K	2.96	2.61	2.3	2.03	1.81	1.62	1.48	1.37	1.32
